Test results reported in patent US12590096B2, “Imidazo[2,1-f][1,2,4]triazin-4-amine as TLR8 agonists” (BeOne Medicines | GmbH, priority 2019, dated 2026).
Like-named read-outs stand apart in the source and are kept apart here.

Assays:
[1] = target: T1, human TLR 8 protein in HEK-blue hTLR 8 tool cell line (Homo sapiens, UniProt Q9NR97); assay: TLR8 stimulation determined by HEK-Blue Detection (NF-κB/SEAP reporter); assay type: cell-based; details: HEK-Blue hTLR8 cells, 16 h incubation
T1 construct: expressed in transfected cells; host or cells: HEK293 (HEK-Blue hTLR8)
T1 sequence (Q9NR97 27-1041): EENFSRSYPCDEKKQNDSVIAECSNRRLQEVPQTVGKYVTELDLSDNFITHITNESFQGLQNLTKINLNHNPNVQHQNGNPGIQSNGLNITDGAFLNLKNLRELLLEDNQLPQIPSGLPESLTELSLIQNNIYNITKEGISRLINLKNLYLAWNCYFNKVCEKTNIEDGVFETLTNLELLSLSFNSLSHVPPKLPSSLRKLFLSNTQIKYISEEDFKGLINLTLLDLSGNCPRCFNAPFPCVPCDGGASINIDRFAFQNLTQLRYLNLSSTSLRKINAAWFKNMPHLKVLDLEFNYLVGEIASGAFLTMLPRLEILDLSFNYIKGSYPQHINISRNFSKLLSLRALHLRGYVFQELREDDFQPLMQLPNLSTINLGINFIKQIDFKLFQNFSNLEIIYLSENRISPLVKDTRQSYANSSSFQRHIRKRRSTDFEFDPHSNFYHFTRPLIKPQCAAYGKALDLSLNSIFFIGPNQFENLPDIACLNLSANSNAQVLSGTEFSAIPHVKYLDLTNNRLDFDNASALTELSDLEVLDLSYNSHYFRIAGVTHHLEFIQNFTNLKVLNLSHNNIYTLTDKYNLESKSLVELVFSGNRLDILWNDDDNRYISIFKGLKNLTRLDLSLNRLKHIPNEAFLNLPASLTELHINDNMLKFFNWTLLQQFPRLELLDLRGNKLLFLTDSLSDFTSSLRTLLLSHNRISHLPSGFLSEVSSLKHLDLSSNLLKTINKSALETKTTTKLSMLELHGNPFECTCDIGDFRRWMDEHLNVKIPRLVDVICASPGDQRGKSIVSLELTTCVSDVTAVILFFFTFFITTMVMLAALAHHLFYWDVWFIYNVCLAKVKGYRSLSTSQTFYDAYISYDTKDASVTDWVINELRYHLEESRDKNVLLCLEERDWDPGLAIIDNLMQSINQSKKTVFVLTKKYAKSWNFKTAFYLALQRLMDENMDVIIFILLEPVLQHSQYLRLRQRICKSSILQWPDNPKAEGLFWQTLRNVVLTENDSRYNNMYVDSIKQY
Source text: TLR8 Stimulation Determined by HEK-Blue Detection
This assay was designed to study the stimulation of human TLR 8 protein in HEK-blue hTLR 8 tool cell line by monitoring the activation of NF-κB. HEK-blue hTLR8 cells were obtained by co-transfection of hTLR8 gene and optimized secretory embryonic alkaline phosphatase (SEAP) reporter gene into HEK293 cells. SEAP reporter gene was put under the control of […] minimal promoter fused with five NF-κB and AP-1-binding sites. NF-κB and AP-1 were activated by stimulation with TLR 8 ligand, thus inducing the expression of SEAP. The level of SEAP can be easily determined by HEK-Blue Detection (a cell culture medium that allows real-time detection of SEAP). HEK-Blue Detection comprises all nutrients needed for cell growth and specific SEAP color substrates. The hydrolysis of substrate by SEAP produces purple/blue color which can be measured by spectrophotometer.
When growing to 50-80% confluence, HEK-Blue hTLR7/8 cells were plated into 96-well plates (costar 3599) at a density of 40,000 cells/well. Then, the compound serially diluted at 10 points with a final concentration ranging from 1 nM to 10 μm in 0.1% DMSO/HEK-Blue Detection was added. The plates were then incubated in 5% CO2 at 37° C. for 16 h. Optical density at 620-655 nm was read on BMG PHERAstar FSX instrument. The EC50 of each compound was determined by calculating the maximum activation percentage identified using Resiquimod or motolimod.
The EC50 of the tested compound of the present invention is as follows.

[2] = test system: PBMC (peripheral blood monocyte); assay: PBMC determination: cytokines in culture supernatant measured by HTRF; assay type: cell-based; details: human PBMC, 24 h
Description: Determination of PBMC (Peripheral Blood Monocyte) Cell Preparation, Separation and Culture
Human whole blood was collected from healthy volunteers using BD Vacutainer® Lithium Heparin Tubes. PBMCs were prepared using Ficoll separation medium (GE Healthcare) by SopMate™ (STEMCELL). The cell survival rate was over 85% as monitored by Countstar. PBMCs were cultured in RPMI 1640 (Gibco) 10% (v/v) FBS (Gibco), 1×MEM NEAA (Gibco), 1× GlutaMAX (Gibco), 1 mM sodium pyruvate (Gibco), 50 uM 2-mercaptoethanol (sigma), and 100 U/ml penicillin-streptomycin (Thermo fisher Scientific).
PBMCs were plated into 96-well plates (costar 3894) with a density of 2×10^5 cells/well. Then, TLR7/8 compound was added, and serial dilution was carried out at ten points. The final concentration in 0.1% DMSO/RPMI 1640 ranged from 1 nM to 10 μM. Then, the plates were incubated in 5% CO2 at 37° C. for 24 h.
HTRF (Homogeneous Time-Resolved Fluorescence)
After the specified time point, according to the manufacturers recommendations, the cytokines in the cell culture supernatant were measured by Human IL6 kit (cisbio) and Human TNF alpha kit (cisbio). The EC50 of each compound was determined by calculating the maximum activation percentage identified using Resiquimod or Motolimod.

[3] = relative to maximum activation by Resiquimod or motolimod, read-out: EC50 (nmol)
[4] = Human IL6 kit (HTRF), read-out: IL6 (EC50)
[5] = Human TNF alpha kit (HTRF), read-out: TNF-alpha (EC50)

EC50 [1, 3]	Compound	further results
0.02 µM	CCC[C@H](C)Oc1nc(N)c2ncc(CC3CCNC(C)C3)n2n1 (stereo partly drawn) [Compound B27, 7-((2-methylpiperidin-4-yl)methyl)-2-(((S)-pent-2-yl)oxy)imidazo[2,1-f][1,2,4]triazin-4-amine]	EC50 [2, 4]: 228 nM; EC50 [2, 5]: 326 nM
1.29 µM	CCC[C@@H](C)Oc1nc(N)c2ncc(CC3CCNCC3)n2n1 [Compound B7, (R)-2-(pent-2-yloxy)-7-(piperidin-4-ylmethyl)imidazo[2,1-f][1,2,4]triazin-4-amine]	EC50 [2, 4]: > 10000 nM; EC50 [2, 5]: > 10000 nM
0.0075 µM	CCC[C@H](CC)Oc1nc(N)c2ncc(CC3CCNCC3)n2n1 [Compound B49, (S)-2-(hex-3-yloxy)-7-(piperidin-4-ylmethyl)imidazo[2,1-f][1,2,4]triazin-4-amine]	–
0.921 µM	CCC[C@H](C)Oc1nc(N)c2ncc(C=C3CCNCC3)n2n1 [Compound B35, (S)-2-(pent-2-yloxy)-7-(piperidin-4-ylidenemethyl)imidazo[2,1-f][1,2,4]triazin-4-amine]	–
> 10 µM	CCCC(C)Oc1nc(N)c2ncc(C3(O)CC4(CCNCC4)C3)n2n1 (stereo not drawn) [Compound B24, 2-(4-amino-2-(pent-2-yloxy)imidazo[2,1-f][1,2,4]triazin-7-yl)-7-azaspiro[3.5]nona-2-ol]	–
0.558 µM	CCC[C@H](C)Oc1nc(N)c2ncc(CC3CCN(CC4CCCN4)CC3)n2n1 (stereo partly drawn) [Compound B20, 2—(((S)-pent-2-yl)oxy)-7-((1-(pyrrolidin-2-ylmethyl)piperidin-4-yl)methyl)imidazo[2,1-f][1,2,4]triazin-4-amine]	–
1.79 µM	CCCCCc1nc(N)c2ncc(CC3CCNCC3)n2n1 [Compound B11, 2-pentyl-7-(piperidin-4-ylmethyl)imidazo[2,1-f][1,2,4]triazin-4-amine]	–
> 10 µM	Cc1cnc(COc2nc(N)c3ncc(CC4CCNCC4)n3n2)s1 [Compound B44, 2-((5-methylthiazol-2-yl)methoxy)-7-(piperidin-4-ylmethyl)imidazo[2,1-f][1,2,4]triazin-4-amine]	–
0.347 µM	CCCCNc1nc(N)c2ncc(CC3CCNCC3)n2n1 [Compound B4, N2-butyl-7-(piperidin-4-ylmethyl)imidazo[2,1-f][1,2,4]triazin-2,4-diamine]	–
0.143 µM	CCC[C@H](C)Oc1nc(N)c2ncc(CC3CCN(C4CCNCC4)CC3)n2n1 [Compound B23, (S)-7-([1,4′-bipiperidin]-4-ylmethyl)-2-(pent-2-yloxy)imidazo[2,1-f][1,2,4]triazin-4-amine]	–

The remaining lines, values behind:

Compound	EC50 [1, 3]	further results
CCC[C@H](C)Oc1nc(N)c2ncc(CC3CCNCC3)n2n1 [Compound B6, (S)-2-(pent-2-yloxy)-7-(piperidin-4-ylmethyl)imidazo[2,1-f][1,2,4]triazin-4-amine]	0.0082 µM	EC50 [2, 4]: 162 nM; EC50 [2, 5]: 115 nM
CCC(CC)Oc1nc(N)c2ncc(CC3CCNCC3)n2n1 [Compound B48, 2-(pent-3-yloxy)-7-(piperidin-4-ylmethyl)imidazo[2,1-f][1,2,4]triazin-4-amine]	0.0147 µM	–
CCC[C@H](C)Oc1nc(N)c2ncc(CC3CCN(CC(C)NC)CC3)n2n1 (single isomer, unassigned) [Compound B58, 7-((1-((R or S)-2-(methylamino)propyl)piperidin-4-yl)methyl)-2-(((S)-pent-2-yl)oxy)imidazo[2,1-f][1,2,4]triazin-4-amine]	0.024 µM	–
CCCC(CCC)Oc1nc(N)c2ncc(CC3CCNCC3)n2n1 [Compound B47, 2-(hept-4-yloxy)-7-(piperidin-4-ylmethyl)imidazo[2,1-f][1,2,4]triazin-4-amine]	0.084 µM	–
CCC[C@H](C)Oc1nc(N)c2ncc(CC3CCN(CC(C)NC)CC3)n2n1 (single isomer, unassigned) [Compound B59, 7-((1-((S or R)-2-(methylamino)propyl)piperidin-4-yl)methyl)-2-(((S)-pent-2-yl)oxy)imidazo[2,1-f][1,2,4]triazin-4-amine]	0.021 µM	–
CCC[C@H](C)Oc1nc(N)c2ncc(C=C3CC4CCC(C3)N4)n2n1 [Compound B55, 7-((8-azabicyclo[3.2.1]oct-3-ylene)methyl)-2-(((S)-pent-2-yl)oxy)imidazo[2,1-f][1,2,4]triazin-4-amine]	–	EC50 ([1]; unit μM, read-out: EC50): > 10 µM
CCC[C@H](C)Oc1nc(N)c2ncc(CC3CC4CCC(C3)N4)n2n1 (stereo partly drawn) [Compound B56, 7-((8-azabicyclo[3.2.1]oct-3-yl)methyl)-2-(((S)-pent-2-yl)oxy)imidazo[2,1-f][1,2,4]triazin-4-amine]	1.92 µM	–
Cc1cc(COc2nc(N)c3ncc(CC4CCNCC4)n3n2)no1 [Compound B41, 2-((5-methylisoxazol-3-yl)methoxy)-7-(piperidin-4-ylmethyl)imidazo[2,1-f][1,2,4]triazin-4-amine]	> 10 µM	–
CCC[C@H](C)Oc1nc(N)c2ncc(C[C@H]3[C@@H]4CNC[C@@H]43)n2n1 [Compound B33, 7-(((1R,5S,6s)-3-azabicyclo[3.1.0]hex-6-yl)methyl)-2-(((S)-pent-2-yl)oxy)imidazo[2,1-f][1,2,4]triazin-4-amine]	0.766 µM	–
CCC[C@H](C)Oc1nc(N)c2ncc(CC3CCNCC3(F)F)n2n1 (stereo partly drawn) [Compound B57, 7-((3,3-difluorpiperidin-4-yl)methyl)-2-(((S)-pent-2-yl)oxy)imidazo[2,1-f][1,2,4]triazin-4-amine]	–	EC50 ([1]; unit μM, read-out: EC50): > 10 µM
CCC[C@H](C)Oc1nc(N)c2ncc(CC3CCC(NC)CC3)n2n1 (stereo partly drawn) [Compound B31, (S)-7-((4-(methylamino)cyclohexyl)methyl)-2-(pent-2-yloxy)imidazo[2,1-f][1,2,4]triazin-4-amine]	0.103 µM	–
CCC[C@H](C)Oc1nc(N)c2ncc(CC3CCN(CC(C)NC)CC3)n2n1 (stereo partly drawn) [Compound B54, 7-((1-(2-(methylamino)propyl)piperidin-4-yl)methyl)-2-(((S)-pent-2-yl)oxy)imidazo[2,1-f][1,2,4]triazin-4-amine]	0.022 µM	–
CCC[C@H](C)Oc1nc(N)c2ncc(CC3CCNCC3C)n2n1 (stereo partly drawn) [Compound B60, 7-((3-methylpiperidin-4-yl)methyl)-2-(((S)-pent-2-yl)oxy)imidazo[2,1-f][1,2,4]triazin-4-amine]	0.917 µM	–
CCC[C@H](C)Oc1nc(N)c2ncc(CC3CCNC3)n2n1 (stereo partly drawn) [Compound B26, 2—(((S)-pent-2-yl)oxy)-7-(pyrrolidin-3-ylmethyl)imidazo[2,1-f][1,2,4]triazin-4-amine]	0.099 µM	–
